{"source": "patent US20230024652A1", "about": "“PHARMACEUTICAL COMPOSITION COMPRISING SMALL OCTOPUS-DERIVED PEPTIDE FOR TREATMENT OF INFLAMMATORY DISEASE” (NATIONAL MARINE BIODIVERSITY INSTITUTE OF KOREA, priority 2020, published 2023)", "system": "RAW 264.7 macrophages", "experiment": "MTT cell viability / cytotoxicity and cyto-protection", "format": "cell-based", "conditions": "62.5 to 500 μg/mL", "experimental": "As macrophages, RAW 264.7 cells (American Type Culture Collection; ATCCUSA) were cultured in DMEM (Gibco/BRL, Canada) supplemented with 10% heat inactivated FBS and 1% antibiotics in 37° C. at 100% humidity under 5% CO2. […] After 24 hours, culture medium containing 3-(4,5-dimethylthiazol-2-yl)-2,5-diphenyltetrazolium bromide (MTT) (0.1 mg/mL) was added to each well. After 1 hour, culture medium was removed, and formazan crystals were dissolved in dimethyl sulfoxide (DMSO) and measured at 550 nm using a microplate reader. The concentration of NO in the culture medium was determined by Griess reagent (Abekura et al. Int Immunopharmacol 68:156, 2019). The cell viability of the control group untreated with Octominin was designated as 100%, which indicates no cytotoxicity", "note": "Where a SMILES comes first, the peptide text is derived from it."}
{"compound": "CC[C@H](C)[C@H](NC(=O)[C@H](C)NC(=O)[C@H](CCCCN)NC(=O)CNC(=O)[C@H](C)NC(=O)[C@H](Cc1c[nH]cn1)NC(=O)[C@@H](NC(=O)[C@H](C)NC(=O)CNC(=O)[C@H](CCCNC(=N)N)NC(=O)[C@@H](NC(=O)[C@H](CC(C)C)NC(=O)[C@H](Cc1c[nH]c2ccccc12)NC(=O)CN)[C@@H](C)CC)[C@@H](C)CC)C(=O)N[C@@H](Cc1c[nH]cn1)C(=O)NCC(=O)N[C@@H](CC(C)C)C(=O)N[C@H](C(=O)N[C@@H](Cc1c[nH]cn1)C(=O)N[C@@H](CCCNC(=N)N)C(=O)N[C@@H](CCCNC(=N)N)C(=O)N[C@@H](CCCNC(=N)N)C(=O)N[C@@H](Cc1c[nH]cn1)C(=O)O)[C@@H](C)CC", "note": "[Octominin] (H-GWLIRGAIHAGKAIHGLIHRRRH-OH)", "values": [{"measurement": "toxicity to macrophages", "value": "non-toxic"}, {"measurement": "cell viability reduction (cytotoxicity, MTT)", "setting": "RAW 264.7 macrophages without LPS, compared with control group", "value": "did not show any significant cell viability reduction"}]}
